Laboratory results reported in patent publication US9169195B2, “Amides, use of amides as solvents for organic compounds, compositions and emulsions containing amides, and method for treating a plant” (AKZO NOBEL CHEMICALS INTERNATIONAL B.V., priority 2009, dated 2015).
Like-named read-outs stand apart in the source and are kept apart here.

Key:
[1] = Solubility of active ingredients in the amide solvents (solvent added until dissolved, stable 24 h)
Method: Various agriculturally active ingredients were dissolved in both N-methyl-N-(2-propylheptyl)-formamide and N-methyl-N-(n-decyl)-formamide in order to evaluate the solubility of the active ingredients in the amides.
This was done by adding the active ingredient (AI) to a beaker and thereafter adding the solvent until the entire AI had been dissolved. The solutions were continually stirred at a temperature of 23° C. during the experiments. When everything had been dissolved, the beakers were left without stirring for 24 h to see if the solution was stable (i.e. no crystallization).

[2] = numbers taken from the e-Pesticide Manual v 4.0; cited from earlier work
[3] = Emulsion dilution: crystallisation of tebuconazole in emulsions, ocular inspection; assay type: physicochemical; design: key: +: no crystals visible; −: crystals visible; settings: 5° C.
Method: Formulations containing 250 g/l of tebuconazole was formulated together with 100 g/l of surfactant blend (CaDDBS and tristyrylphenol ethoxylate (15 EO), 50:50) and diluted to a final volume of one liter with each one of the solvents N,N-dimethyl decanamide, N-methyl-N-octyl propanamide, N-methyl-N-(2-propylheptyl) formamide or N-methyl-N-(n-decyl) formamide. Each formulation was emulsified into tap water at ambient temperature (˜22° C.) in the volume ratio (formulation:water) 1:100, 1:150, 1:200 and 1:500 dilution. The emulsions were poured into 100 ml conical glass centrifuge tubes and monitored over time at three different temperatures 5, 20 and 40° C. for observation of crystallisation of active ingredient (tebuconazole).
Crystallization was judged by ocular inspection with the naked eye, and in the table below, the following is used: […]

[4] = solvent N-methyl-N-(2-propylheptyl) formamide, 23° C.
[5] = solvent N-methyl-N-(n-decyl) formamide, 23° C.
[6] = 3 h, formulation:tap water 1:100, 250 g/l tebuconazole
[7] = 3 h, formulation:tap water 1:150, 250 g/l tebuconazole
[8] = 3 h, formulation:tap water 1:200, 250 g/l tebuconazole
[9] = 3 h, formulation:tap water 1:500, 250 g/l tebuconazole
[10] = 6 h, formulation:tap water 1:100, 250 g/l tebuconazole
[11] = 6 h, formulation:tap water 1:150, 250 g/l tebuconazole
[12] = 6 h, formulation:tap water 1:200, 250 g/l tebuconazole
[13] = 6 h, formulation:tap water 1:500, 250 g/l tebuconazole
[14] = 12 h, formulation:tap water 1:100, 250 g/l tebuconazole
[15] = 12 h, formulation:tap water 1:150, 250 g/l tebuconazole
[16] = 12 h, formulation:tap water 1:200, 250 g/l tebuconazole
[17] = 12 h, formulation:tap water 1:500, 250 g/l tebuconazole
[18] = 24 h, formulation:tap water 1:100, 250 g/l tebuconazole
[19] = 24 h, formulation:tap water 1:150, 250 g/l tebuconazole
[20] = 24 h, formulation:tap water 1:200, 250 g/l tebuconazole
[21] = 24 h, formulation:tap water 1:500, 250 g/l tebuconazole
[22] = 36 h, formulation:tap water 1:100, 250 g/l tebuconazole
[23] = 36 h, formulation:tap water 1:150, 250 g/l tebuconazole
[24] = 36 h, formulation:tap water 1:200, 250 g/l tebuconazole
[25] = 36 h, formulation:tap water 1:500, 250 g/l tebuconazole
[26] = 48 h, formulation:tap water 1:100, 250 g/l tebuconazole
[27] = 48 h, formulation:tap water 1:150, 250 g/l tebuconazole
[28] = 48 h, formulation:tap water 1:200, 250 g/l tebuconazole
[29] = 48 h, formulation:tap water 1:500, 250 g/l tebuconazole
[30] = 72 h, formulation:tap water 1:100, 250 g/l tebuconazole
[31] = 72 h, formulation:tap water 1:150, 250 g/l tebuconazole
[32] = 72 h, formulation:tap water 1:200, 250 g/l tebuconazole
[33] = 72 h, formulation:tap water 1:500, 250 g/l tebuconazole
[34] = 96 h, formulation:tap water 1:100, 250 g/l tebuconazole
[35] = 96 h, formulation:tap water 1:150, 250 g/l tebuconazole
[36] = 96 h, formulation:tap water 1:200, 250 g/l tebuconazole
[37] = 96 h, formulation:tap water 1:500, 250 g/l tebuconazole

Structure (SMILES)	Solubility in N-Methyl-N-(2-propylheptyl) formamide [1, 4]	Crystallisation of tebuconazole in emulsion [3, 6]	Crystallisation of tebuconazole in emulsion [3, 7]	Crystallisation of tebuconazole in emulsion [3, 8]	Crystallisation of tebuconazole in emulsion [3, 9]	Crystallisation of tebuconazole in emulsion [3, 10]	Crystallisation of tebuconazole in emulsion [3, 11]	Crystallisation of tebuconazole in emulsion [3, 12]	Crystallisation of tebuconazole in emulsion [3, 13]	Crystallisation of tebuconazole in emulsion [3, 14]	Crystallisation of tebuconazole in emulsion [3, 15]	Crystallisation of tebuconazole in emulsion [3, 16]	Crystallisation of tebuconazole in emulsion [3, 17]	Crystallisation of tebuconazole in emulsion [3, 18]	Crystallisation of tebuconazole in emulsion [3, 19]	Crystallisation of tebuconazole in emulsion [3, 20]	Crystallisation of tebuconazole in emulsion [3, 21]	Crystallisation of tebuconazole in emulsion [3, 22]	Crystallisation of tebuconazole in emulsion [3, 23]	Crystallisation of tebuconazole in emulsion [3, 24]	also measured
CC(C)(C)C(O)(CCc1ccc(Cl)cc1)Cn1cncn1 (stereo not drawn) [Tebuconazole]	48 g Al/100 g solvent																				Solubility in N-Methyl-N-(n-decyl) formamide [1]: 48 g Al/100 g solvent
Cc1c(COC(=O)[C@@H]2[C@H](/C=C(\Cl)C(F)(F)F)C2(C)C)cccc1-c1ccccc1 (racemic) [Bifenthrin]	>50 g Al/100 g solvent																				Solubility in N-Methyl-N-(n-decyl) formamide [1, 5]: >50 g Al/100 g solvent; Solubility in Water [2]: <0.0000001 g Al/100 g solvent
CCCCCCCCN(C)C(=O)CC [N-methyl-N-octyl propanamide]		+	+	+	+	+	+	+	−	+	+	−	−	+	+	−	−	+	+	−	Crystallisation of tebuconazole in emulsion [3, 25]: −; Crystallisation of tebuconazole in emulsion [3, 26]: +; Crystallisation of tebuconazole in emulsion [3, 27]: −; Crystallisation of tebuconazole in emulsion [3, 28]: −; Crystallisation of tebuconazole in emulsion [3, 29]: −; Crystallisation of tebuconazole in emulsion [3, 30]: +; Crystallisation of tebuconazole in emulsion [3, 31]: −; Crystallisation of tebuconazole in emulsion [3, 32]: −; Crystallisation of tebuconazole in emulsion [3, 33]: −; Crystallisation of tebuconazole in emulsion [3, 34]: +; Crystallisation of tebuconazole in emulsion [3, 35]: −; Crystallisation of tebuconazole in emulsion [3, 36]: −; Crystallisation of tebuconazole in emulsion [3, 37]: −
CON=C(C(=O)OC)c1ccccc1CON=C(C)c1cccc(C(F)(F)F)c1 [Trifloxystrobin]																					Solubility in N-Methyl-N-(2-propylheptyl) formamide [1]: 23 g Al/100 g solvent; Solubility in N-Methyl-N-(n-decyl) formamide [1]: 23 g Al/100 g solvent
CCCCCCCCCCN(C)C=O [N-methyl-N-(n-decyl) formamide]		+	+	+	+	+	+	+	+	+	+	+	+	+	+	+	+	+	+	+	Crystallisation of tebuconazole in emulsion [3, 25]: +; Crystallisation of tebuconazole in emulsion [3, 26]: +; Crystallisation of tebuconazole in emulsion [3, 27]: +; Crystallisation of tebuconazole in emulsion [3, 28]: +; Crystallisation of tebuconazole in emulsion [3, 29]: +; Crystallisation of tebuconazole in emulsion [3, 30]: +; Crystallisation of tebuconazole in emulsion [3, 31]: +; Crystallisation of tebuconazole in emulsion [3, 32]: +; Crystallisation of tebuconazole in emulsion [3, 33]: +; Crystallisation of tebuconazole in emulsion [3, 34]: +; Crystallisation of tebuconazole in emulsion [3, 35]: +; Crystallisation of tebuconazole in emulsion [3, 36]: +; Crystallisation of tebuconazole in emulsion [3, 37]: +
O=C(O)COc1ccc(Cl)cc1Cl [2,4-D acid]	41 g Al/100 g solvent																				Solubility in N-Methyl-N-(n-decyl) formamide [1, 5]: >50 g Al/100 g solvent; Solubility in Water [2]: 0.0311 g Al/100 g solvent
CCCCCCCCCC(=O)N(C)C [N,N-dimethyl decanamide]		+	+	+	+	+	+	+	−	+	+	−	−	+	−	−	−	+	−	−	Crystallisation of tebuconazole in emulsion [3, 25]: −; Crystallisation of tebuconazole in emulsion [3, 26]: +; Crystallisation of tebuconazole in emulsion [3, 27]: −; Crystallisation of tebuconazole in emulsion [3, 28]: −; Crystallisation of tebuconazole in emulsion [3, 29]: −; Crystallisation of tebuconazole in emulsion [3, 30]: +; Crystallisation of tebuconazole in emulsion [3, 31]: −; Crystallisation of tebuconazole in emulsion [3, 32]: −; Crystallisation of tebuconazole in emulsion [3, 33]: −; Crystallisation of tebuconazole in emulsion [3, 34]: +; Crystallisation of tebuconazole in emulsion [3, 35]: −; Crystallisation of tebuconazole in emulsion [3, 36]: −; Crystallisation of tebuconazole in emulsion [3, 37]: −
Cc1ccc(/N=C/N(C)/C=N/c2ccc(C)cc2C)c(C)c1 [Amitraz]	>50 g Al/100 g solvent																				Solubility in N-Methyl-N-(n-decyl) formamide [1, 5]: >50 g Al/100 g solvent; Solubility in Water [2]: <0.00001 g Al/100 g solvent
CCCCCC(CCC)CN(C)C=O (stereo not drawn) [N-methyl-N-(2-propylheptyl) formamide, N-methyl-N-(2-propylheptyl)-formamide]		+	+	+	+	+	+	+	+	+	+	+	+	+	+	+	+	+	+	+	Crystallisation of tebuconazole in emulsion [3, 25]: +; Crystallisation of tebuconazole in emulsion [3, 26]: +; Crystallisation of tebuconazole in emulsion [3, 27]: +; Crystallisation of tebuconazole in emulsion [3, 28]: +; Crystallisation of tebuconazole in emulsion [3, 29]: +; Crystallisation of tebuconazole in emulsion [3, 30]: +; Crystallisation of tebuconazole in emulsion [3, 31]: +; Crystallisation of tebuconazole in emulsion [3, 32]: +; Crystallisation of tebuconazole in emulsion [3, 33]: +; Crystallisation of tebuconazole in emulsion [3, 34]: +; Crystallisation of tebuconazole in emulsion [3, 35]: +; Crystallisation of tebuconazole in emulsion [3, 36]: +; Crystallisation of tebuconazole in emulsion [3, 37]: +
